This note sets out measurements from US20240300999A1, “PEPTIDES FOR REGULATING GLUCOSE” (priority 2021, published 2024).

Experiment [1] has as its system L6 myotubes. The experiment can be described thus: Glucose uptake (2-deoxy-D-[3H]glucose) screening assay in cultured L6 myotubes. The experiment is classed as cell-based, rat. The following applies: for Glucose Uptake (fold activity to control), Insulin (−) / Glucose Uptake (fold activity to control), Insulin (+): synthetic peptides 1 pg/mL (each), mean ± SEM.
Experiment [2] relates to L6 myotubes. Described as above. The format is cell-based, rat. The following applies: for Concentration at which inhibition of glucose uptake was exhibited / Concentration at which stimulation of glucose uptake was exhibited: L6 myotubes; for Bioactivity: Table 4, identified peptides; for Glucose Uptake (fold activity to control), Insulin (−) / Glucose Uptake (fold activity to control), Insulin (+): synthetic peptides 1 ng/mL (each), mean ± SEM. As for the experimental part:
Screening assays were performed as follows. L6 rat myoblasts (courtesy of Dr. Amira Klip, Hospital for Sick Children, Toronto, Canada) were grown and maintained in monolayer culture in alpha-MEM containing 2% (v/v) fetal bovine serum in an atmosphere of 5% CO2 at 37° C. L6 myoblasts were plated in 12-well or 24-well plates at 20,000 cells/mL, replacing the media every two days until complete differentiation into myotubes (7 days post-plating).
Once completely differentiated, myotubes were serum deprived (alpha-MEM with 0% FBS) for 3 h and treated or not with SPF (1 ng/ml or 1 μg/mL) for 2 h without (insulin-independent) or with 100 nM insulin (insulin-dependent) during the last 45 min. Cells were rinsed once with glucose-free HEPES-buffered saline solution pH 7.4 (140 mM NaCl, 20 mM HEPES/Na, 5 mM KCl, 2.5 mM MgSO4 and 1 mM CaCl2)), and were subsequently incubated for 8 min with 10 µM 2-deoxy-D-glucose containing 0.3 μCi/mL 2-deoxy-D-[3H]glucose in the same buffer. After incubation in transport medium, cells were rinsed three times with ice-cold saline solution (0.9% NaCl) and stored at −20° C. Cells were disrupted by adding 1 mL of 50 mM NaOH to plates with agitation for 15 min. Cell-incorporated radioactivity was measured using a Perkin Elmer Tricarb liquid scintillation counter. Protein concentrations were determined by the micro bicinchoninic acid method (BCA) using a bovine serum albumin (BSA) standard curve (ThermoScientific, Waltham, Mass, USA), and the results expressed in pM/min/mg protein, calculated using the following equation: […]
where DPM (sample) is the number of disintegrations per minute (DPM) measured for the tested sample, C is the concentration of protein (mg), DPM (2DG) is the number of DPM measure for the solution of radioactive 2-deoxy-D-[3H] glucose for 1 pmol and equal to 72.2025 dpm/pmol, and t is the incubation time with 2-deoxy-D-[3H] glucose, and reported in terms of relative activity to the control sample in the absence of insulin. Statistical analysis was performed in Microsoft Excel using a two-tailed Student's t-test assuming equal variance.

Setting [3] is: 1 pg/mL, insulin state not distinguished.
The mark [4] stands for this setting: 1 ng/mL, insulin state not distinguished (presence or absence).

For the substance “Ile-Ala-Tyr (IAY) [chemically synthesized tripeptide, Ile-X-Tyr motif]”, the “Effect on glucose uptake (in words)” value with L6 myotubes [1] (1 pg/mL (each peptide), absence of insulin) is listed as “inhibited glucose uptake”; with L6 myotubes [1] (setting [3]), “inhibiting effect”; with L6 myotubes [1] (1 pg/mL, presence of insulin) it was “inhibited glucose uptake”; in the experiment on L6 myotubes [2] (1 ng/mL (each peptide), absence of insulin), “stimulated glucose uptake”; in the experiment with L6 myotubes [2] (setting [4]) it was “stimulating effect”; in the experiment with L6 myotubes [2] (1 ng/mL, presence of insulin) it was “stimulated glucose uptake”. The “Glucose Uptake (fold activity to control), Insulin (−)” value was 0.86 ± 0.04 fold activity to control in the experiment on L6 myotubes [1] (absence of insulin) and 1.13 ± 0.05 fold activity to control with L6 myotubes [2] (absence of insulin). For the same substance, the “Glucose Uptake (fold activity to control), Insulin (+)” value in the experiment with L6 myotubes [1] (presence of insulin) is on record as 1.55 ± 0.04 fold activity to control; with L6 myotubes [2] (presence of insulin) it was 1.97 ± 0.08 fold activity to control. In addition, the “Concentration at which inhibition of glucose uptake was exhibited” value in the experiment on L6 myotubes [2] is 2.7 pM. In the experiment on L6 myotubes [2], the “Concentration at which stimulation of glucose uptake was exhibited” value was found to be 2.7 nM. For the same substance, the Bioactivity entry in the experiment on L6 myotubes [2] is given as “Modulates glucose uptake”.
As to “Ile-Gly-Tyr (IGY) [chemically synthesized tripeptide, Ile-X-Tyr motif]”, the “Effect on glucose uptake (in words)” value is reported as “inhibiting effect” in the experiment on L6 myotubes [1] (setting [3]); “inhibited glucose uptake” in the experiment with L6 myotubes [1] (1 pg/mL, presence of insulin); “stimulating effect” with L6 myotubes [2] (setting [4]); “stimulated glucose uptake” in the experiment with L6 myotubes [2] (1 ng/mL, presence of insulin). The “Glucose Uptake (fold activity to control), Insulin (−)” value in the experiment with L6 myotubes [1] (absence of insulin) is on record as 0.98 ± 0.06 fold activity to control; in the experiment on L6 myotubes [2] (absence of insulin) it was 1.05 ± 0.06 fold activity to control. Besides, the “Glucose Uptake (fold activity to control), Insulin (+)” value in the experiment on L6 myotubes [1] (presence of insulin) was 1.49 ± 0.10 fold activity to control; in the experiment with L6 myotubes [2] (presence of insulin), 2.02 ± 0.05 fold activity to control. For the same substance, the “Concentration at which inhibition of glucose uptake was exhibited” value in the experiment on L6 myotubes [2] is 2.8 pM. The “Concentration at which stimulation of glucose uptake was exhibited” value in the experiment on L6 myotubes [2] came to 2.8 nM. Also, in the experiment on L6 myotubes [2], the Bioactivity result is “Modulates glucose uptake”.
In the case of Ile-Ala-Ile, the “Effect on glucose uptake (in words)” value in the experiment with L6 myotubes [2] (setting [4]) is listed as “No significant effect”. The “Glucose Uptake (fold activity to control), Insulin (−)” value in the experiment with L6 myotubes [2] (absence of insulin) was 1.04 ± 0.04 fold activity to control. In addition, in the experiment with L6 myotubes [2] (presence of insulin), the “Glucose Uptake (fold activity to control), Insulin (+)” value is on record as 1.80 ± 0.09 fold activity to control.
As to Ile-Gly-Ile, the “Effect on glucose uptake (in words)” value with L6 myotubes [2] (setting [4]) is “No significant effect”. Moreover, in the experiment with L6 myotubes [2] (absence of insulin), the “Glucose Uptake (fold activity to control), Insulin (−)” value was 1.04 ± 0.04 fold activity to control. In the experiment on L6 myotubes [2] (presence of insulin), the “Glucose Uptake (fold activity to control), Insulin (+)” value is 1.75 ± 0.17 fold activity to control.
On to Ile-Ile-Ile, for which, in the experiment with L6 myotubes [2] (setting [4]), the “Effect on glucose uptake (in words)” value was “No significant effect”. Further, in the experiment on L6 myotubes [2] (absence of insulin), the “Glucose Uptake (fold activity to control), Insulin (−)” value is on record as 1.00 ± 0.04 fold activity to control. Further, in the experiment on L6 myotubes [2] (presence of insulin), the “Glucose Uptake (fold activity to control), Insulin (+)” value is given as 2.02 ± 0.27 fold activity to control.
Consider Ile-Ile-Tyr, for which the “Glucose Uptake (fold activity to control), Insulin (−)” value with L6 myotubes [1] (absence of insulin) is recorded as 0.97 ± 0.04 fold activity to control; in the experiment on L6 myotubes [2] (absence of insulin) it was 1.06 ± 0.03 fold activity to control. Besides, the “Glucose Uptake (fold activity to control), Insulin (+)” value is 1.61 ± 0.07 fold activity to control with L6 myotubes [1] (presence of insulin) and 1.88 ± 0.11 fold activity to control in the experiment with L6 myotubes [2] (presence of insulin). Further, in the experiment on L6 myotubes [2] (setting [4]), the “Effect on glucose uptake (in words)” value was “did not significantly affect”.
